Measured values: publication PMC9386255, “Specialized acyl carrier protein used by serine palmitoyltransferase to synthesize sphingolipids in Rhodobacteria” (Frontiers in Microbiology, 2022)

Assays:
Assay type in all cases: biochemical
[1] = molecular target: T1, FadDSm, acyl-CoA synthetase FadD from S. meliloti 1021 (Sinorhizobium meliloti, UniProt Q7APF7); assay: [3H]palmitoyl-CoA formation, heptane extraction, scintillation counting; conditions: 40 uM CoA, 10 mM ATP, 10 mM MgSO4, 1 mM Triton X-100, pH 8.0, 37 C
T1 construct: full length, His6-tagged (pET28a, pECH3), E. coli BL21(DE3) pLysS host, IMAC-purified, tag kept
T1 sequence (Q7APF7 entry or part of it): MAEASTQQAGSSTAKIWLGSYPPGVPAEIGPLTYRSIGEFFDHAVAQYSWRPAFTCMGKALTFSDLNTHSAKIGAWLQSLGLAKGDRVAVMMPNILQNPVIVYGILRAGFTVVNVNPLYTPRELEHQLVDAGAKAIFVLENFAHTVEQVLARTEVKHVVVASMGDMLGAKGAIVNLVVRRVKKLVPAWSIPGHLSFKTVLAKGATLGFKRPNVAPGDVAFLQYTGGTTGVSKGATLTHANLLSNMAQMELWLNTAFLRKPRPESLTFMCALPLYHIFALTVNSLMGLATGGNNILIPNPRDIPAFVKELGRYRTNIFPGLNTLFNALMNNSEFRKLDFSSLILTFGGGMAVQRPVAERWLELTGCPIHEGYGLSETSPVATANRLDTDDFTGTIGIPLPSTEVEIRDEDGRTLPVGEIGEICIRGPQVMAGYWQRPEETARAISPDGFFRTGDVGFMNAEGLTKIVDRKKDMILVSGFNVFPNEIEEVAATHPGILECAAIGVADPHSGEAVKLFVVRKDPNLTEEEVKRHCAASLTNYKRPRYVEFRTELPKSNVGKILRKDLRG

[2] = molecular target: T2, SPTCc (CC_1162), serine palmitoyltransferase (Caulobacter vibrioides, UniProt Q9A932); assay: L-[…]serine incorporation into 3-oxo-sphinganine, TLC autoradiography, empty-vector control; conditions: 10 uM palmitoyl-CoA, 432 uM L-[14C]serine, 10 uM pyridoxal phosphate, pH 7.5, 30 C; minor product
T2 construct: full length, expressed from pET9a (pJPG08) in E. coli BL21(DE3) pLysS, cell-free extract
T2 sequence (Q9A932 1-404): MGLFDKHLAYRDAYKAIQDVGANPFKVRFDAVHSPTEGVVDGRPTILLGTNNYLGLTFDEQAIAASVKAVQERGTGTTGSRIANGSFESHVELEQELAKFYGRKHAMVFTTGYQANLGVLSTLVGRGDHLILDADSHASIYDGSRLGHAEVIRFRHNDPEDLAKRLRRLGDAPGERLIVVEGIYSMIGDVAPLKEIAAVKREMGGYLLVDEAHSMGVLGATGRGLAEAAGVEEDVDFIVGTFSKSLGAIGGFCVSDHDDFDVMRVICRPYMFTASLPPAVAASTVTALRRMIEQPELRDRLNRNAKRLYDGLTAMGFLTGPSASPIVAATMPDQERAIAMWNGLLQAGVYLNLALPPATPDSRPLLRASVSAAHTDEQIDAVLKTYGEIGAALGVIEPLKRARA

[3] = molecular target: T3, SPTEc (ECD_02854), serine palmitoyltransferase (Escherichia coli, UniProt B1LEF2); assay: as above; conditions: 10 uM palmitoyl-CoA, 432 uM L-[14C]serine, 10 uM pyridoxal phosphate, pH 7.5, 30 C; minor product
T3 construct: gene EcSMS35_3263; full length, expressed from pET9a (pJPG01) in E. coli BL21(DE3) pLysS, cell-free extract
T3 sequence (B1LEF2 1-390): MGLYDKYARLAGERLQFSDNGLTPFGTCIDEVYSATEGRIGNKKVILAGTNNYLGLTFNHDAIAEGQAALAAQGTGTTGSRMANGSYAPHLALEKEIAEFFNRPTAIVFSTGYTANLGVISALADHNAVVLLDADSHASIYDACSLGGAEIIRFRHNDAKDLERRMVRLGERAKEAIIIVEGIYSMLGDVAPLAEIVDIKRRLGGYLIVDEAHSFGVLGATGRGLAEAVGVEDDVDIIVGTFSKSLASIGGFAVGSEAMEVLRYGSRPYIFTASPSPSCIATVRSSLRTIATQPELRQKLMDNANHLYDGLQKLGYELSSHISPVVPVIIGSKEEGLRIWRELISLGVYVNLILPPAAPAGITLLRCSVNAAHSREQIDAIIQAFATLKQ

[4] = molecular target: T4, SPTSw (Swit_3900), serine palmitoyltransferase (Rhizorhabdus wittichii, UniProt A0A9J9HEF8); assay: as above; conditions: 10 uM palmitoyl-CoA, 432 uM L-[14C]serine, 10 uM pyridoxal phosphate, pH 7.5, 30 C; minor product
T4 construct: full length, expressed from pET9a (pJPG02) in E. coli BL21(DE3) pLysS, cell-free extract
T4 sequence (A0A9J9HEF8 1-400): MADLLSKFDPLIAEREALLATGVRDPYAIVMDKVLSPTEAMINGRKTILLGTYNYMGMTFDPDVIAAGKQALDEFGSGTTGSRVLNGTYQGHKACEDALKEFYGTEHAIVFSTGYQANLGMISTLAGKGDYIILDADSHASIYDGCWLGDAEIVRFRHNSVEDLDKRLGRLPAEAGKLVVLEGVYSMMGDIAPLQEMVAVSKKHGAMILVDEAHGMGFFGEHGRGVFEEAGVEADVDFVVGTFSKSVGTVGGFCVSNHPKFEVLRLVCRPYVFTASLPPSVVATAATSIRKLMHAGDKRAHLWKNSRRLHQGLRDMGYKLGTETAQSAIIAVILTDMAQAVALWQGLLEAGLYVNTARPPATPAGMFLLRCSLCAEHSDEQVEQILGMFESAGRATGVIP

CCCCCCCCCCCCCCCC(=O)O [palmitate]
[3H]palmitoyl-CoA formation, heptane extraction, scintillation counting ([1]; 200 uM palmitate, labelled compound): Using FadDSm in the acylation assay resulted in an increase in the amount of acyl-CoA

CC(C)(COP(=O)(O)OP(=O)(O)OC[C@H]1O[C@@H](n2cnc3c(N)ncnc32)[C@H](O)[C@@H]1OP(=O)(O)O)[C@@H](O)C(=O)NCCC(=O)NCCS [CoA]
[3H]palmitoyl-CoA formation, heptane extraction, scintillation counting ([1]; 200 uM [3H]palmitate): acyl-CoA synthetase FadD is able to form acyl-CoA

CCCCCCCCCCCCCCCC(=O)SCCNC(=O)CCNC(=O)[C@H](O)C(C)(C)COP(=O)(O)OP(=O)(O)OC[C@H]1O[C@@H](n2cnc3c(N)ncnc32)[C@H](O)[C@@H]1OP(=O)(O)O [palmitoyl-CoA]
L-[14C]serine incorporation into 3-oxo-sphinganine, TLC autoradiography, empty-v [2]: using the SPTs from C. crescentus, E. coli BL21(DE3) or S. wittichii, and palmitoyl-CoA as thioester | L-[14C]serine incorporation into 3-oxo-sphinganine, TLC autoradiography, empty-v [3]: using the SPTs from C. crescentus, E. coli BL21(DE3) or S. wittichii, and palmitoyl-CoA as thioester | L-[14C]serine incorporation into 3-oxo-sphinganine, TLC autoradiography, empty-v [4]: using the SPTs from C. crescentus, E. coli BL21(DE3) or S. wittichii, and palmitoyl-CoA as thioester
